Data taken from patent US6015941A, “Peptide derivatives of tachyplesin having antimicrobial activity” (Pioneer Hi-Bred International, Inc., priority 1997, dated 2000).
Like-named read-outs stand apart in the source and are kept apart here. Positions of bridges follow the written chain, without caps; N, C: chain ends. Residues, ends and D or L forms follow the SMILES beside them.

How the values were obtained:
Aspergillus flavus = format: cell-based
Fusarium graminearum = format: cell-based
Fusarium moniliforme = format: cell-based
E. coli = format: cell-based
[1] = test system: Salmonella typhimurium (ATCC 13311); format: cell-based
[2] = test system: Pseudomonas aeruginosa (ATCC 21036); format: cell-based
[3] = test system: Staphylococcus aureaus (ATCC 25923); format: cell-based, S. aureus
[4] = test system: Shigella dysenteriae (ATCC 13313); assay: Disk diffusion assay, human pathogens; format: cell-based
[5] = test system: Candida albicans (ATCC 10231); format: cell-based
[6] = test system: maize protoplasts (Black Mexican Sweet)
human erythrocytes [7] = conditions: red cells of human, 100 μM
human erythrocytes [8] = conditions: cited from earlier work
[9] = average of two independent measurements, SD 15%
[10] = minimum complete inhibitory concentration, average of two measurements

| Compound | lysis of rabbit erythrocytes (rabbit erythrocytes) | A. flavus MCIC (Aspergillus flavus) | A. flavus MIC (Aspergillus flavus) [µM] | F. graminearum MIC (Fusarium graminearum; [9]) [µM] | F. graminearum MCIC (Fusarium graminearum; [10]) [µM] | F. moniliforme MCIC (Fusarium moniliforme) | F. moniliforme MIC (Fusarium moniliforme) [µM] | hemolysis of human erythrocytes (human erythrocytes [7]) | other results |
| --- | --- | --- | --- | --- | --- | --- | --- | --- | --- |
| CC[C@H](C)[C@H](NC(=O)CN)C(=O)NCC(=O)N[C@@H](C)C(=O)N[C@H](C(=O)N[C@@H](CC(C)C)C(=O)N[C@@H](CCCCN)C(=O)N[C@H](C(=O)N[C@@H](CC(C)C)C(=O)N[C@H](C(=O)N[C@H](C(=O)NCC(=O)N[C@@H](CC(C)C)C(=O)N1CCC[C@H]1C(=O)N[C@@H](C)C(=O)N[C@@H](CC(C)C)C(=O)N[C@H](C(=O)N[C@@H](CO)C(=O)N[C@@H](Cc1c[nH]c2ccccc12)C(=O)N[C@H](C(=O)N[C@@H](CCCCN)C(=O)N[C@@H](CCCNC(=N)N)C(=O)N[C@@H](CCCCN)C(=O)N[C@@H](CCCNC(=N)N)C(=O)N[C@@H](CCC(N)=O)C(=O)N[C@@H](CCC(N)=O)C(N)=O)[C@@H](C)CC)[C@@H](C)CC)[C@@H](C)O)[C@@H](C)O)C(C)C)C(C)C [Melittin] | complete lysis | – | – | – | – | – | – | – | – |
| CC[C@H](C)[C@@H]1NC(=O)CNC(=O)[C@H](CCCNC(=N)N)NC(=O)[C@H](Cc2ccc(O)cc2)NC(=O)[C@@H]2CSSC[C@H](NC1=O)C(=O)N[C@@H](Cc1ccc(O)cc1)C(=O)N[C@@H](CCCNC(=N)N)C(=O)N[C@@H](CCCNC(=N)N)C(=O)N[C@H](C(=O)N[C@@H](CCCNC(=N)N)C(=O)O)CSSC[C@H](NC(=O)[C@H](Cc1c[nH]c3ccccc13)NC(=O)[C@@H](N)CCCCN)C(=O)N[C@@H](Cc1ccccc1)C(=O)N[C@@H](CCCNC(=N)N)C(=O)N[C@@H](C(C)C)C(=O)N2 [TP, tachyplesin] (H-KWCFRVCYRGICYRRCR-OH; disulfide 3-16, 7-12) | little or no activity | 34 | 13 | 8 | 17 | 21 | 8 | about 15% | E. coli MCIC (E. coli): 3; E. coli MIC (E. coli): 1 µM; S. typhimurium zone size [1]: 18 mm; P. aeruginosa zone size [2]: 14 mm; S. aureus zone size [3]: 18 mm; S. dysenteria zone size ([4]; 50 μg per disk): 18 mm; S. dysenteria zone size ([4]; 100 μg per disk): 18 mm; C. albicans zone size [5]: 16 mm; order of toxicity as measured by cell viability [6]: TPF>TP/TPM>TPI/TPL>TPY>TPA/TPV and TPD |
| CC[C@H](C)[C@@H]1NC(=O)CNC(=O)[C@H](CCCNC(=N)N)NC(=O)[C@H](Cc2ccc(O)cc2)NC(=O)[C@@H]2CSSC[C@H](NC1=O)C(=O)N[C@@H](Cc1ccc(O)cc1)C(=O)N[C@@H](CCCNC(=N)N)C(=O)N[C@@H](CCCNC(=N)N)C(=O)N[C@H](C(=O)N[C@@H](CCCNC(=N)N)C(N)=O)CSSC[C@H](NC(=O)[C@H](Cc1c[nH]c3ccccc13)NC(=O)[C@@H](N)CCCCN)C(=O)N[C@@H](Cc1ccccc1)C(=O)N[C@@H](CCCNC(=N)N)C(=O)N[C@@H](C(C)C)C(=O)N2 [amidated-TP] (H-KWCFRVCYRGICYRRCR-NH2; disulfide 3-16, 7-12) | – | – | – | – | – | – | – | about 30% | lysis of human erythrocytes (human erythrocytes [8]): 100% |
| cecropin B | – | > 20 | > 20 | 3 | 5 | 20 | 3 | – | – |
| mastoparan [mastoporan] | – | > 50 | 24 | – | – | 11 | 3 | – | F. graminearum MCIC (Fusarium graminearum): 8; F. graminearum MIC (Fusarium graminearum): 5 µM |
